Experimental data reported in the NIST ThermoML archive (doi:10.1021/je200637v).
± gives the expanded uncertainty stated by the source.

Test: activity coefficient (dimensionless); of the first substance listed, at infinite dilution; xn = mol fraction of the nth substance listed
Conditions: Liquid, Chromatography, x1 = 0

SMILES | activity coefficient (322.85 K) | activity coefficient (332.65 K) | activity coefficient (343.15 K)
CCC(C)CC [3-methylpentane] + CCCCCCCC[N+](CCCCCCCC)(CCCCCCCC)CCCCCCCC.O=S(=O)([N-]S(=O)(=O)C(F)(F)F)C(F)(F)F | 1.22 ± 0.04 | 1.22 ± 0.04 | 1.21 ± 0.04
CCC(C)CC [3-methylpentane] + CCCC[N+](C)(CCCC)CCCC.O=S(=O)([N-]S(=O)(=O)C(F)(F)F)C(F)(F)F | 6.1 ± 0.28 | 6.17 ± 0.28 | 5.86 ± 0.27
CC#N [acetonitrile] + CCCCCCCCCC[N+](C)(C)C.O=S(=O)([N-]S(=O)(=O)C(F)(F)F)C(F)(F)F | 0.44 ± 0.03 | 0.44 ± 0.03 | 0.42 ± 0.03
CC#N [acetonitrile] + CCCCCCCC[N+](C)(C)C.O=S(=O)([N-]S(=O)(=O)C(F)(F)F)C(F)(F)F | 0.48 ± 0.03 | 0.46 ± 0.03 | 0.44 ± 0.03
CC#N [acetonitrile] + CCCCCCCC[N+](CCCCCCCC)(CCCCCCCC)CCCCCCCC.O=S(=O)([N-]S(=O)(=O)C(F)(F)F)C(F)(F)F | 0.5 ± 0.03 | 0.49 ± 0.03 | 0.49 ± 0.03
CC#N [acetonitrile] + CCCC[N+](C)(CCCC)CCCC.O=S(=O)([N-]S(=O)(=O)C(F)(F)F)C(F)(F)F | 0.49 ± 0.03 | 0.5 ± 0.03 | 0.48 ± 0.03
c1ccccc1 [benzene] + CCCCCCCCCC[N+](C)(C)C.O=S(=O)([N-]S(=O)(=O)C(F)(F)F)C(F)(F)F | 0.71 ± 0.03 | 0.73 ± 0.03 | 0.72 ± 0.03
c1ccccc1 [benzene] + CCCCCCCC[N+](C)(C)C.O=S(=O)([N-]S(=O)(=O)C(F)(F)F)C(F)(F)F | 0.73 ± 0.03 | 0.74 ± 0.03 | 0.73 ± 0.03
c1ccccc1 [benzene] + CCCCCCCC[N+](CCCCCCCC)(CCCCCCCC)CCCCCCCC.O=S(=O)([N-]S(=O)(=O)C(F)(F)F)C(F)(F)F | 0.4 ± 0.03 | 0.41 ± 0.03 | 0.41 ± 0.03
c1ccccc1 [benzene] + CCCC[N+](C)(CCCC)CCCC.O=S(=O)([N-]S(=O)(=O)C(F)(F)F)C(F)(F)F | 0.9 ± 0.03 | 0.93 ± 0.03 | 0.92 ± 0.03
CCCCO [butan-1-ol] + CCCCCCCCCC[N+](C)(C)C.O=S(=O)([N-]S(=O)(=O)C(F)(F)F)C(F)(F)F | 1.7 ± 0.07 | 1.55 ± 0.06 | 1.38 ± 0.05
CCCCO [butan-1-ol] + CCCCCCCC[N+](C)(C)C.O=S(=O)([N-]S(=O)(=O)C(F)(F)F)C(F)(F)F | 2.01 ± 0.09 | 1.8 ± 0.08 | 1.59 ± 0.06
CCCCO [butan-1-ol] + CCCCCCCC[N+](CCCCCCCC)(CCCCCCCC)CCCCCCCC.O=S(=O)([N-]S(=O)(=O)C(F)(F)F)C(F)(F)F | 3.08 ± 0.14 | 1.12 ± 0.03 | 1.04 ± 0.03
CCCCO [butan-1-ol] + CCCC[N+](C)(CCCC)CCCC.O=S(=O)([N-]S(=O)(=O)C(F)(F)F)C(F)(F)F | 2.1 ± 0.1 | 1.89 ± 0.08 | 1.73 ± 0.07
CCCC=O [butanal] + CCCCCCCCCC[N+](C)(C)C.O=S(=O)([N-]S(=O)(=O)C(F)(F)F)C(F)(F)F | 0.47 ± 0.03 | 0.53 ± 0.03 | 0.51 ± 0.03
CCCC=O [butanal] + CCCCCCCC[N+](CCCCCCCC)(CCCCCCCC)CCCCCCCC.O=S(=O)([N-]S(=O)(=O)C(F)(F)F)C(F)(F)F |  |  | 0.31 ± 0.04
CCC(C)=O [butanone] + CCCCCCCCCC[N+](C)(C)C.O=S(=O)([N-]S(=O)(=O)C(F)(F)F)C(F)(F)F | 0.33 ± 0.04 | 0.32 ± 0.04 | 0.29 ± 0.04
CCC(C)=O [butanone] + CCCCCCCC[N+](C)(C)C.O=S(=O)([N-]S(=O)(=O)C(F)(F)F)C(F)(F)F | 0.41 ± 0.03 | 0.38 ± 0.03 | 0.34 ± 0.04
CCC(C)=O [butanone] + CCCCCCCC[N+](CCCCCCCC)(CCCCCCCC)CCCCCCCC.O=S(=O)([N-]S(=O)(=O)C(F)(F)F)C(F)(F)F | 0.29 ± 0.04 | 0.28 ± 0.04 | 0.26 ± 0.04
CCC(C)=O [butanone] + CCCC[N+](C)(CCCC)CCCC.O=S(=O)([N-]S(=O)(=O)C(F)(F)F)C(F)(F)F | 0.4 ± 0.03 | 0.38 ± 0.03 | 0.35 ± 0.04
C1CCCCCC1 [cycloheptane] + CCCCCCCCCC[N+](C)(C)C.O=S(=O)([N-]S(=O)(=O)C(F)(F)F)C(F)(F)F | 7.7 ± 0.35 | 10.8 ± 0.49 | 14.6 ± 0.67
C1CCCCCC1 [cycloheptane] + CCCCCCCC[N+](C)(C)C.O=S(=O)([N-]S(=O)(=O)C(F)(F)F)C(F)(F)F | 10.8 ± 0.5 | 14.7 ± 0.68 | 19.4 ± 0.9
C1CCCCCC1 [cycloheptane] + CCCCCCCC[N+](CCCCCCCC)(CCCCCCCC)CCCCCCCC.O=S(=O)([N-]S(=O)(=O)C(F)(F)F)C(F)(F)F | 2.21 ± 0.1 | 3.16 ± 0.14 | 4.37 ± 0.2

SMILES | activity coefficient (322.85 K) | activity coefficient (332.65 K) | activity coefficient (343.15 K)
C1CCCCCC1 [cycloheptane] + CCCC[N+](C)(CCCC)CCCC.O=S(=O)([N-]S(=O)(=O)C(F)(F)F)C(F)(F)F | 12.4 ± 0.57 | 17.7 ± 0.82 | 23.9 ± 1.1
C1CCCCC1 [cyclohexane] + CCCCCCCCCC[N+](C)(C)C.O=S(=O)([N-]S(=O)(=O)C(F)(F)F)C(F)(F)F | 2.9 ± 0.13 | 2.96 ± 0.13 | 2.8 ± 0.13
C1CCCCC1 [cyclohexane] + CCCCCCCC[N+](C)(C)C.O=S(=O)([N-]S(=O)(=O)C(F)(F)F)C(F)(F)F | 4.08 ± 0.19 | 3.84 ± 0.17 | 3.57 ± 0.16
C1CCCCC1 [cyclohexane] + CCCCCCCC[N+](CCCCCCCC)(CCCCCCCC)CCCCCCCC.O=S(=O)([N-]S(=O)(=O)C(F)(F)F)C(F)(F)F | 0.95 ± 0.03 | 0.94 ± 0.03 | 0.92 ± 0.03
C1CCCCC1 [cyclohexane] + CCCC[N+](C)(CCCC)CCCC.O=S(=O)([N-]S(=O)(=O)C(F)(F)F)C(F)(F)F | 4.74 ± 0.22 | 4.71 ± 0.21 | 4.44 ± 0.2
CCCCCCCCCC [decane] + CCCCCCCCCC[N+](C)(C)C.O=S(=O)([N-]S(=O)(=O)C(F)(F)F)C(F)(F)F | 10.1 ± 0.46 | 9.82 ± 0.45 | 9.32 ± 0.43
CCCCCCCCCC [decane] + CCCCCCCC[N+](C)(C)C.O=S(=O)([N-]S(=O)(=O)C(F)(F)F)C(F)(F)F | 19.3 ± 0.89 | 17.9 ± 0.83 | 16.2 ± 0.75
CCCCCCCCCC [decane] + CCCCCCCC[N+](CCCCCCCC)(CCCCCCCC)CCCCCCCC.O=S(=O)([N-]S(=O)(=O)C(F)(F)F)C(F)(F)F | 2.3 ± 0.1 | 2.32 ± 0.11 | 2.21 ± 0.1
CCCCCCCCCC [decane] + CCCC[N+](C)(CCCC)CCCC.O=S(=O)([N-]S(=O)(=O)C(F)(F)F)C(F)(F)F | 19.6 ± 0.91 | 19.2 ± 0.89 | 17.8 ± 0.82
ClCCl [dichloromethane] + CCCCCCCCCC[N+](C)(C)C.O=S(=O)([N-]S(=O)(=O)C(F)(F)F)C(F)(F)F | 0.51 ± 0.03 | 0.55 ± 0.03 | 0.56 ± 0.03
ClCCl [dichloromethane] + CCCCCCCC[N+](C)(C)C.O=S(=O)([N-]S(=O)(=O)C(F)(F)F)C(F)(F)F | 0.51 ± 0.03 | 0.53 ± 0.03 | 0.54 ± 0.03
ClCCl [dichloromethane] + CCCCCCCC[N+](CCCCCCCC)(CCCCCCCC)CCCCCCCC.O=S(=O)([N-]S(=O)(=O)C(F)(F)F)C(F)(F)F | 0.29 ± 0.04 | 0.3 ± 0.04 | 0.31 ± 0.04
ClCCl [dichloromethane] + CCCC[N+](C)(CCCC)CCCC.O=S(=O)([N-]S(=O)(=O)C(F)(F)F)C(F)(F)F | 0.66 ± 0.03 | 0.69 ± 0.03 | 0.7 ± 0.03
CCOCC [diethyl ether] + CCCCCCCCCC[N+](C)(C)C.O=S(=O)([N-]S(=O)(=O)C(F)(F)F)C(F)(F)F | 1.23 ± 0.04 | 1.24 ± 0.04 | 1.21 ± 0.04
CCOCC [diethyl ether] + CCCCCCCC[N+](C)(C)C.O=S(=O)([N-]S(=O)(=O)C(F)(F)F)C(F)(F)F | 1.6 ± 0.06 | 1.57 ± 0.06 | 1.53 ± 0.06
CCOCC [diethyl ether] + CCCCCCCC[N+](CCCCCCCC)(CCCCCCCC)CCCCCCCC.O=S(=O)([N-]S(=O)(=O)C(F)(F)F)C(F)(F)F | 0.71 ± 0.03 | 0.71 ± 0.03 | 0.71 ± 0.03
CCOCC [diethyl ether] + CCCC[N+](C)(CCCC)CCCC.O=S(=O)([N-]S(=O)(=O)C(F)(F)F)C(F)(F)F | 1.65 ± 0.07 | 1.67 ± 0.07 | 1.65 ± 0.07
CC(C)OC(C)C [diisopropyl ether] + CCCCCCCCCC[N+](C)(C)C.O=S(=O)([N-]S(=O)(=O)C(F)(F)F)C(F)(F)F | 2.19 ± 0.1 | 2.32 ± 0.11 | 2.3 ± 0.1
CC(C)OC(C)C [diisopropyl ether] + CCCCCCCC[N+](C)(C)C.O=S(=O)([N-]S(=O)(=O)C(F)(F)F)C(F)(F)F | 3.22 ± 0.15 | 3.15 ± 0.14 | 3.08 ± 0.14
CC(C)OC(C)C [diisopropyl ether] + CCCCCCCC[N+](CCCCCCCC)(CCCCCCCC)CCCCCCCC.O=S(=O)([N-]S(=O)(=O)C(F)(F)F)C(F)(F)F | 1.08 ± 0.03 | 1.08 ± 0.03 | 1.08 ± 0.03
CC(C)OC(C)C [diisopropyl ether] + CCCC[N+](C)(CCCC)CCCC.O=S(=O)([N-]S(=O)(=O)C(F)(F)F)C(F)(F)F | 3.31 ± 0.15 | 3.35 ± 0.15 | 3.35 ± 0.15
CCCCCCCCCCCC [dodecane] + CCCCCCCCCC[N+](C)(C)C.O=S(=O)([N-]S(=O)(=O)C(F)(F)F)C(F)(F)F | 15.1 ± 0.7 | 14.8 ± 0.68 | 13.8 ± 0.63
